The values that follow come from PMC8225008, “Development of Non-Ethoxypropanoic Acid Type Cryptochrome Inhibitors with Circadian Molecular Clock-Enhancing Activity by Bioisosteric Replacement” (Pharmaceuticals, 2021).

A short description of series [1]: Metabolic stability test in pooled human liver microsomes. It counts as in vitro ADME. The conditions noted are these: pooled HLMs 1.0 mg/mL, 1 μM compound, NADPH generating system, read-out: t1/2 in HLMs. Here is the method: The metabolic stability of KS15, 5d, or 2d was evaluated using pooled HLMs. Pooled HLMs (1.0 mg/mL), a potassium phosphate buffer, and a test compound (1 μM) were pre-incubated (37 °C, 5 min). To initiate the reaction, the NADPH generating system was added to the samples and incubated for specific time points (0, 5, 15, 20, 45, and 60 min). Then, aliquots were taken and reactions terminated in acetonitrile containing IS. After centrifugation, supernatants were analyzed using LC-MS/MS to determine KS15, 5d, or 2d concentrations in samples. Analyte separation was performed using a Kinetex C18 column (100 mm × 2.1 mm, 2.6 μm ID., Phenomenex). The mobile phase solvent A was 0.1% formic acid in water, and solvent B was 0.1% formic acid in acetonitrile. Gradient separation was performed as follows: 0–3 min (10–90% B) and 3.1–8 min (10% B). The flow rate was 0.2 mL/min, and the run time was 8 min for each sample. Electrospray ionization was conducted in positive ion mode at 4 kV. […] Quantitation was performed in the SRM of the [M+H]^+ ion and the related product ion for each test compound and IS: KS-15 (m/z 420 > 169, CE 30 eV), 5d (m/z 359 > 206, CE 20 eV), 2d (m/z 345 > 192, CE 22 eV), and IS (m/z 295 > 100, CE 17 eV).
The EC50 values for luciferase reporter assay were calculated based on a logistic four-parametric equation using the mean values of intrinsic activation (SigmaPlot 10.0; Systat Software Inc., San Jose, CA, USA). The IC50 and t1/2 values for the cytochrome P450 inhibition assay and metabolic stability test were calculated by WinNonlin software (Pharsight, Mountain View, CA, USA). Pharmacokinetic parameters were calculated using non-compartmental analysis (WinNonlin v.8.3; Pharsight, Mountain View, CA, USA). […] Circadian molecular clock-enhancing activities were expressed as means ± SE and statistically evaluated by Student’s t-test or one-way analysis of variance (ANOVA) followed by Newman–Keuls multiple comparison test for post hoc comparisons. […]

For series [2], the system named is Per2-luciferase knock-in (Per2-Luc-KI) fibroblast cultures. The series is described as follows: Real-time bioluminescence monitoring of DEX-synchronized Per2-Luc-KI fibroblast cultures. It counts as cell-based, mouse. Conditions: 20 μM, DEX-synchronized Per2-Luc-KI fibroblasts. Here is the method: For real-time bioluminescence monitoring, we used mouse embryonic fibroblast (MEF) cultures established from Per2-LUC-KI mice. […] The medium was then replaced with a recording medium containing 0.1 mM D-luciferin (Promega) along with vehicle (0.1% DMSO), KS15 (20 μM), 5d (20 μM), or 2d (20 μM). Light emission for 2 min at intervals of 20 min was integrated using a dish-type wheeled luminometer (Kronos-Dio, ATTO Cooperation, Tokyo, Japan). Background-subtracted bioluminescence profiles were analyzed using Cosinor analysis software (available at http://www.circadian.org, last accessed on 19 May 2021).
(§1) The EC50 values for luciferase reporter assay were calculated based on a logistic four-parametric equation using the mean values of intrinsic activation (SigmaPlot 10.0; Systat Software Inc., San Jose, CA, USA). The IC50 and t1/2 values for the cytochrome P450 inhibition assay and metabolic stability test were calculated by WinNonlin software (Pharsight, Mountain View, CA, USA). Pharmacokinetic parameters were calculated using non-compartmental analysis (WinNonlin v.8.3; Pharsight, Mountain View, CA, USA). Kinetic and equilibrium constants for SPR analysis were obtained by global fitting of the Langmuir 1:1 bimolecular kinetic model (ProteOn Manager v.3.1.0.6, Bio-Rad, Hercules, CA, USA). Circadian molecular clock-enhancing activities were expressed as means ± SE and statistically evaluated by Student’s t-test or one-way analysis of variance (ANOVA) followed by Newman–Keuls multiple comparison test for post hoc comparisons. The significance level for the analyses was set at p < 0.05.

The test system of series [3] is E-box-LUC reporter. The series is described as follows: E-box-LUC luciferase reporter assay, dose-response in stably transfected NIH3T3 cells. Type of series: cell-based. Conditions: Mus musculus, E-box-LUC reporter activity, NIH3T3, 36 h; for Emax: maximum response as a percentage of the vehicle-treated group, read-out: Max (%). Here is the method: (§2) Materials for cell culture were purchased from Thermo Fisher Scientific, unless otherwise stated. NIH3T3 and HEK293T cells were maintained in Dulbecco’s modified Eagle medium supplemented with 5% fetal bovine serum and 100 U/mL penicillin/streptomycin in a humidified atmosphere containing 5% CO2 at 37 °C. Plasmids and transfection experiments for luciferase reporter assay were described in our previous report. For dose-response experiments, mouse NIH3T3 cells stably transfected with an E-box-LUC reporter were plated in 12-well culture plates, treated as indicated for 36 h, and subjected to luciferase assay. For transient transfections, we seeded HEK293T cells in 12-well culture plates and used Lipofectamine® 3000 reagent to transfect cells with the E-box-LUC reporter and the indicated clock gene expression plasmids together with a thymidine kinase promoter-driven Renilla luciferase (pRL-TK) plasmids. We kept total DNA levels constant by adding an empty pcDNA3.1 plasmid. After 24 h of transfection, cells were treated with vehicle (0.1% DMSO) or chemical compounds at various concentrations for 36 h. Cell extracts were prepared by incubating cells in 0.3 mL reporter lysis buffer for 15 min at room temperature. Luciferase activity was measured with a commercial dual luciferase assay kit (Promega, Madison, WI, USA).
as §1

The target of series [4] is T1, hCRY1 (Homo sapiens, UniProt Q16526).
T1 sequence (Q16526 1-586): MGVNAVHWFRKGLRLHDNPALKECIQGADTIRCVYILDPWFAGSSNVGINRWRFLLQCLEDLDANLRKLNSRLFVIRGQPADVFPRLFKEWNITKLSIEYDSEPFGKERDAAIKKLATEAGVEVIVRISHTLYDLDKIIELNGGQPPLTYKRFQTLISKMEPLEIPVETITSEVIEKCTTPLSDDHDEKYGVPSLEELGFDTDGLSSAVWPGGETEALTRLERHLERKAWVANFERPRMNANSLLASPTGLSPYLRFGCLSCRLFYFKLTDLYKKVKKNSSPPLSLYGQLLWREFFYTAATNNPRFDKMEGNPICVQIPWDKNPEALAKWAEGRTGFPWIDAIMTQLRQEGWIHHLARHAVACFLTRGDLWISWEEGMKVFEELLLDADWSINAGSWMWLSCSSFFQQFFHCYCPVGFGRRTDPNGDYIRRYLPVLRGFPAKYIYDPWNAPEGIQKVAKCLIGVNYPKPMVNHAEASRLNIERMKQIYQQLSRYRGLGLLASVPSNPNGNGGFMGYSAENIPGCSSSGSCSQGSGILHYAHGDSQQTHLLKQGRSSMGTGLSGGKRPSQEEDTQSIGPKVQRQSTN
As to the kind of experiment: Suppressive action of CRY1 on CLOCK:BMAL1-activated E-box-LUC reporter activity in transiently transfected HEK293T cells. Type of series: cell-based. Further details: expressed in transfected cells; host or cells: HEK293T. The conditions noted are these: co-expression of human CRY1, 36 h treatment. The method, then:
as §2

Some results are limits rather than exact numbers.

As a reminder, the EC50 is the concentration needed to bring the measured effect to its halfway point. Higher therefore signals a less potent agent.

Consider `CC(=NOCc1ccc([N+](=O)[O-])cc1)c1cccc(OCC(=O)O)c1` [Compound 2d, 2-(3-(1-(((4-nitrobenzyl)oxy)imino)ethyl)phenoxy)acetic acid], for which the half-life at 1 μM in series [1] is greater than 60 min. Further, in series [2], the “Amplitude of cyclic Per2 expression” value is listed as “significantly augmented the amplitude” and the “Robustness of the rhythm (Cosinor regression)” value is “barely affect the robustness”. In series [3], the EC50 amounted to 10.2 µM and the Emax was 161%. Further, in series [4], the “Effect on CRY1-suppressed CLOCK:BMAL1-activated E-box-mediated transcription” value is “dose-dependently restored E-box-mediated transcriptional activities”.
For the molecule `COC(=O)COc1cccc(C(C)=NOCc2ccc([N+](=O)[O-])cc2)c1` [Compound 5d, Methyl 2-(3-(1-(((4-nitrobenzyl)oxy)imino)ethyl)phenoxy)acetate], in series [1], the half-life at 1 μM amounted to 2.4 min. In series [2], the “Amplitude of cyclic Per2 expression” value is “significantly augmented the amplitude” and the “Robustness of the rhythm (Cosinor regression)” value was “barely affect the robustness”. In series [3], the EC50 came out at 6.44 µM and the Emax was determined as 193%. In addition, the “Effect on CRY1-suppressed CLOCK:BMAL1-activated E-box-mediated transcription” value in series [4] is reported as “dose-dependently restored E-box-mediated transcriptional activities”.
